Data published in patent US20120245111A1, “FLAVANONES-CONTAINING FOOD COMPOSITIONS” (NESTEC S.A., priority 2009, published 2012).

Assay: Particle size distribution of hesperidin in water by laser diffraction (Malvern Mastersizer 2000)
Type: physicochemical
Procedure: The particle size distribution is observed using a microscopy optic LEICA DMR (mode Differential Interference Contrast and polarisation). The particle size distribution is measured by laser diffraction using a Malvern Mastersizer 2000.
The hesperidin obtainable by the heat treatment processes of the invention has a smaller size distribution compared to commercially available hesperidin as illustrated in FIG. 3.
For variant 3 (140° C., 60 s) and variant 4 (160° C., 10 s), the cumulative distribution of particle size below 20 microns increases to 99%. Thus, it can be seen that the heat treatment has an influence on the particle size of hesperidin and on the conformation of hesperidin particles. Therefore, sedimentation is avoided.

## COc1ccc([C@@H]2CC(=O)c3c(O)cc(O[C@@H]4O[C@H](CO[C@@H]5O[C@@H](C)[C@H](O)[C@@H](O)[C@H]5O)[C@@H](O)[C@H](O)[C@H]4O)cc3O2)cc1O [commercially available hesperidin, hesperidin]
0.5% hesperidin in water, before or after UHT treatment
  % of cumulative distribution of hesperidin particle below 20 microns: 40%
Commercially available hesperidin extract, crystalline form
  crystal size distribution range: 0.1 to 160 microns
